Source: CN111517978A, “环己烯基-dl-天门冬氨酸衍生物及其制备方法、组合物与用途” (Zhongshan Wanhan Pharmaceutical Co ltd, priority 2020, dated 2020)

Tests used:
Format in all cases: cell-based
Settings in all cases: component A (XP or YS) alone
[1] = tested on: Micrococcus lysodeikticus 2665 (溶壁微球菌2665); test: Antibacterial action (MIC, FICI) against Micrococcus lysodeikticus 2665 (Table 4)
[2] = tested on: Bacteroides fragilis ATCC25285 (脆弱拟杆菌ATCC25285); test: Antibacterial action (MIC, FICI) against Bacteroides fragilis ATCC25285 (Table 26)
[3] = tested on: Shigella flexneri 2aEW-10 (福氏志贺氏菌2aEW-10); test: Antibacterial action (MIC, FICI) against Shigella flexneri 2aEW-10 (Table 15)
[4] = tested on: Klebsiella pneumoniae NCTC 9632 (肺炎克雷伯菌NCTC 9632); test: Antibacterial action (MIC, FICI) against Klebsiella pneumoniae NCTC 9632 (Table 9)
[5] = tested on: Clostridium perfringens ATCC13124 (产气荚膜梭状芽孢杆菌ATCC13124)
[6] = tested on: Providencia stuartii 57 (斯氏普罗威登斯菌57); test: Antibacterial action (MIC, FICI) against Providencia stuartii 57 (Table 12)
[7] = tested on: Streptococcus intermedius ATCC27335 (中间链球菌ATCC27335); test: Antibacterial action (MIC, FICI) against Streptococcus intermedius ATCC27335 (Table 20)
[8] = tested on: Serratia marcescens IFO 3736 (黏质沙雷氏菌IFO 3736); test: Antibacterial action (MIC, FICI) against Serratia marcescens IFO 3736 (Table 10)
[9] = tested on: Propionibacterium acnes ATCC11828 (痤疮丙酸杆菌ATCC11828); test: Antibacterial action (MIC, FICI) against Propionibacterium acnes ATCC11828 (Table 21)
[10] = tested on: Stenotrophomonas maltophilia NCTC 13637 (嗜麦芽窄食单胞菌NCTC 13637); test: Antibacterial action (MIC, FICI) against Stenotrophomonas maltophilia NCTC 13637 (Table 18)
[11] = tested on: Escherichia coli ATCC25922 (大肠杆菌ATCC25922); test: Antibacterial action (MIC, FICI) against Escherichia coli ATCC25922 (Table 7)

Q: `CCOC(=O)C1=C[C@@H](OC(CC)CC)[C@H](NC(CC(=O)O)C(=O)O)[C@@H](N=[N+]=[N-])C1` (mixture of isomers) [化合物21P, ((1R,2R,6S)-6-叠氮基-4-(乙氧基羰基)-2-(戊-3-基氧基)环己-3-烯-1-基)-DL-天门冬氨酸] was tested. Which MIC_A [1] did it give?
A: Its MIC_A is 13 ng/mL.

Q: What about the MIC_A [2] of the same compound?
A: The MIC_A was 13 ng/mL.

Q: And the MIC_A [3]?
A: Its MIC_A is 17 ng/mL.

Q: What about the MIC_A [4] of the same compound?
A: Its MIC_A is 15 ng/mL.

Q: And the MIC_A [5]?
A: Its MIC_A is 56 ng/mL.

Q: What does the source list for `CCOC(=O)C1=C[C@@H](OC(CC)CC)[C@H](N)[C@@H](N=[N+]=[N-])C1` [化合物21S, 乙基(3R,4R,5S)-4-氨基-5-叠氮基-3-(戊-3-基氧基)环己-1-烯-1-羧酸酯]?
A: MIC_A [1]: 407 ng/mL; MIC_A [2]: 375 ng/mL; MIC_A [3]: 533 ng/mL; MIC_A [4]: 613 ng/mL; MIC_A [5]: 884 ng/mL

Q: How did the MIC_A [6] turn out when `CCOC(=O)C1=C[C@H](OC(CC)CC)[C@H](N)[C@@H](NC(C)=O)C1` [化合物18S, 乙基(3S,4R,5S)-5-乙酰氨基-4-氨基-3-(戊-3-基氧基)环己-1-烯-1-羧酸酯] was run?
A: The MIC_A was 959 ng/mL.

Q: And the MIC_A [1]?
A: The MIC_A was 418 ng/mL.

Q: And the MIC_A [2]?
A: The MIC_A was 305 ng/mL.

Q: And the MIC_A [7]?
A: The MIC_A was 1137 ng/mL.

Q: And the MIC_A [8]?
A: The MIC_A was 992 ng/mL.

Q: `CCOC(=O)C1=C[C@@H](OC(CC)CC)[C@@H](NC(C)=O)[C@H](NC(CC(=O)O)C(=O)O)C1` (mixture of isomers) [化合物5P, ((1R,5R,6S)-6-乙酰氨基-3-(乙氧基羰基)-5-(戊-3-基氧基)环己-3-烯-1-基)-DL-天门冬氨酸] was tested. Which MIC_A [9] did it give?
A: The MIC_A was 15 ng/mL.

Q: What about the MIC_A [2] of the same compound?
A: The MIC_A was 20 ng/mL.

Q: What about the MIC_A [3] of the same compound?
A: The MIC_A was 24 ng/mL.

Q: And the MIC_A [4]?
A: Its MIC_A is 17 ng/mL.

Q: How did the MIC_A [9] turn out when `CCC(CC)O[C@@H]1C=C(C(=O)O)C[C@H](N)[C@H]1NC(C)=O` [化合物10S, (3R,4R,5S)-4-乙酰氨基-5-氨基-3-(戊-3-基氧基)环己-1-烯-1-羧酸] was run?
A: Its MIC_A is 737 ng/mL.

Q: What about the MIC_A [2] of the same compound?
A: Its MIC_A is 484 ng/mL.

Q: And the MIC_A [3]?
A: Its MIC_A is 671 ng/mL.

Q: With `CCC(CC)O[C@@H]1C=C(C(=O)OC)C[C@H](N)[C@H]1NC(C)=O` [化合物3S, 甲基(3R,4R,5S)-4-乙酰氨基-5-氨基-3-(戊-3-基氧基)环己-1-烯-1-羧酸酯] as the compound, how does the MIC_A [2] read?
A: The MIC_A was 362 ng/mL.

Q: What about the MIC_A [4] of the same compound?
A: Its MIC_A is 424 ng/mL.

Q: And the MIC_A [8]?
A: The MIC_A was 456 ng/mL.

Q: `CCC(CC)O[C@@H]1C=C(C(=O)O)C[C@H](NC(CC(=O)O)C(=O)O)[C@H]1NC(C)=O` (mixture of isomers) [化合物10P, ((1S,5R,6R)-6-乙酰氨基-3-羧基-5-(戊-3-基氧基)环己-3-烯-1-基)-DL-天门冬氨酸] was tested. Which MIC_A [9] did it give?
A: The MIC_A was 35 ng/mL.

Q: And the MIC_A [2]?
A: The MIC_A was 6 ng/mL.

Q: What about the MIC_A [3] of the same compound?
A: The MIC_A was 25 ng/mL.

Q: Which MIC_A [6] does the source give for `CCOC(=O)C1=C[C@H](OC(CC)CC)[C@H](NC(CC(=O)O)C(=O)O)[C@@H](NC(C)=O)C1` (mixture of isomers) [化合物18P, ((1R,2S,6S)-6-乙酰氨基-4-(乙氧基羰基)-2-(戊-3-基氧基)环己-3-烯-1-基)-DL-天门冬氨酸] here?
A: The MIC_A was 22 ng/mL.

Q: And the MIC_A [1]?
A: The MIC_A was 6 ng/mL.

Q: And the MIC_A [2]?
A: Its MIC_A is 17 ng/mL.

Q: What about the MIC_A [7] of the same compound?
A: Its MIC_A is 27 ng/mL.

Q: What about the MIC_A [8] of the same compound?
A: Its MIC_A is 53 ng/mL.

Q: For `CC(=O)N[C@H]1[C@H](O)C=C(C(=O)O)C[C@@H]1NC(CC(=O)O)C(=O)O` (mixture of isomers) [化合物15P, ((1S,5R,6R)-6-乙酰氨基-3-羧基-5-羟基环己-3-烯-1-基)-DL-天门冬氨酸], which MIC_A [2] is on record?
A: The MIC_A was 24 ng/mL.

Q: What about the MIC_A [3] of the same compound?
A: Its MIC_A is 3 ng/mL.

Q: What about the MIC_A [10] of the same compound?
A: Its MIC_A is 24 ng/mL.

Q: What about the MIC_A [11] of the same compound?
A: The MIC_A was 15 ng/mL.

Q: What about the MIC_A [5] of the same compound?
A: Its MIC_A is 47 ng/mL.

Q: How did the MIC_A [6] turn out when `CCOC(=O)C1=C[C@@H](OC(CC)CC)[C@H](NC(C)=O)[C@H](NC(CC(=O)O)C(=O)O)C1` (mixture of isomers) [化合物9P, ((1R,5R,6R)-6-乙酰氨基-3-(乙氧基羰基)-5-(戊-3-基氧基)环己-3-烯-1-基)-DL-天门冬氨酸] was run?
A: The MIC_A was 29 ng/mL.

Q: And the MIC_A [1]?
A: The MIC_A was 18 ng/mL.

Q: And the MIC_A [2]?
A: The MIC_A was 16 ng/mL.

Q: And the MIC_A [7]?
A: The MIC_A was 9 ng/mL.

Q: What about the MIC_A [8] of the same compound?
A: Its MIC_A is 49 ng/mL.

Q: How did the MIC_A [6] turn out when `CCOC(=O)C1=C[C@@H](OC(CC)CC)[C@H](NC(C)=O)[C@H](N)C1` [化合物9S, 乙基(3R,4R,5R)-4-乙酰氨基-5-氨基-3-(戊-3-基氧基)环己-1-烯-1-羧酸酯] was run?
A: The MIC_A was 440 ng/mL.

Q: And the MIC_A [1]?
A: The MIC_A was 462 ng/mL.

Q: And the MIC_A [2]?
A: Its MIC_A is 316 ng/mL.

Q: And the MIC_A [7]?
A: The MIC_A was 410 ng/mL.

Q: And the MIC_A [8]?
A: Its MIC_A is 864 ng/mL.

Q: With `CCOC(=O)C1=C[C@@H](OC(CC)CC)[C@@H](NC(C)=O)[C@H](N)C1` [化合物5S, 乙基(3R,4S,5R)-4-乙酰氨基-5-氨基-3-(戊-3-基氧基)环己-1-烯-1-羧酸酯] as the compound, how does the MIC_A [9] read?
A: Its MIC_A is 919 ng/mL.

Q: What about the MIC_A [2] of the same compound?
A: Its MIC_A is 323 ng/mL.

Q: What about the MIC_A [3] of the same compound?
A: The MIC_A was 483 ng/mL.

Q: What about the MIC_A [4] of the same compound?
A: Its MIC_A is 507 ng/mL.

Q: With `CCOC(=O)C1=C[C@H](OC(CC)CC)[C@@H](N)[C@H](N)C1` [化合物17S, 乙基(3S,4S,5R)-4,5-二氨基-3-(戊-3-基氧基)环己-1-烯-1-羧酸酯] as the compound, how does the MIC_A [9] read?
A: The MIC_A was 969 ng/mL.

Q: And the MIC_A [3]?
A: The MIC_A was 929 ng/mL.

Q: And the MIC_A [10]?
A: Its MIC_A is 447 ng/mL.

Q: And the MIC_A [11]?
A: The MIC_A was 683 ng/mL.

Q: And the MIC_A [5]?
A: Its MIC_A is 684 ng/mL.

Q: For `CC(=O)N[C@H]1[C@H](O)C=C(C(=O)O)C[C@@H]1N` [化合物15S, (3R,4R,5S)-4-乙酰氨基-5-氨基-3-羟基环己-1-烯-1-羧酸], which MIC_A [2] is on record?
A: Its MIC_A is 730 ng/mL.

Q: And the MIC_A [3]?
A: The MIC_A was 303 ng/mL.

Q: And the MIC_A [10]?
A: Its MIC_A is 1138 ng/mL.

Q: What about the MIC_A [11] of the same compound?
A: The MIC_A was 354 ng/mL.

Q: What about the MIC_A [5] of the same compound?
A: Its MIC_A is 681 ng/mL.

Q: Which results are given for `CCOC(=O)C1=C[C@@H](OC(CC)CC)[C@H](NC(C)=O)[C@@H](N)C1` [化合物1S, 乙基(3R,4R,5S)-4-乙酰氨基-5-氨基-3-(戊-3-基氧基)环己-1-烯-1-羧酸酯]?
A: MIC_A [6]: 1178 ng/mL; MIC_A [9]: 633 ng/mL; MIC_A [1]: 300 ng/mL; MIC_A [5]: 504 ng/mL

Q: `CCOC(=O)C1=C[C@H](OC(CC)CC)[C@@H](N)[C@H](NC(CC(=O)O)C(=O)O)C1` (mixture of isomers) [化合物17P, ((1R,5S,6S)-6-氨基-3-(乙氧基羰基)-5-(戊-3-基氧基)环己-3-烯-1-基)-DL-天门冬氨酸] was tested. Which MIC_A [9] did it give?
A: The MIC_A was 27 ng/mL.

Q: What about the MIC_A [3] of the same compound?
A: The MIC_A was 30 ng/mL.

Q: What about the MIC_A [10] of the same compound?
A: The MIC_A was 16 ng/mL.

Q: What about the MIC_A [11] of the same compound?
A: The MIC_A was 22 ng/mL.

Q: And the MIC_A [5]?
A: The MIC_A was 21 ng/mL.

Q: Which MIC_A [2] does the source give for `CCC(CC)O[C@@H]1C=C(C(=O)OC)C[C@H](NC(CC(=O)O)C(=O)O)[C@H]1NC(C)=O` (mixture of isomers) [化合物3P, ((1S,5R,6R)-6-乙酰氨基-3-(甲氧基羰基)-5-(戊-3-基氧基)环己-3-烯-1-基)-DL-天门冬氨酸] here?
A: The MIC_A was 11 ng/mL.

Q: What about the MIC_A [4] of the same compound?
A: Its MIC_A is 22 ng/mL.

Q: What about the MIC_A [8] of the same compound?
A: The MIC_A was 11 ng/mL.
